“And” between values parts separate entries of the source, which are not always exact repeats. Identical values can stand only once.
How the values were obtained:
β2AR = experiment: Radiolabelled antagonist-binding assay (saturation); set-up: species or system human; Bmax / 125I-Cyanopindolol saturation binding signal: unit not given here; details: for Bmax / fmol 125I-Cyanopindolol/mg sample: replicates 1-3 and Average; for fmol 125I-Cyanopindolol/mg sample, Fit: fitted curve;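 on all read-outs here: membranes expressing β2AR constructs, equilibrated with radioligand on ice, bound ligand retained on GF/C filters, Bmax normalized to membrane protein from a DC assay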
Untransfected = experiment: Radiolabelled antagonist-binding assay (saturation), untransfected control sample; details: fitted curve
Text: Supplement 41586_2023_5789_MOESM3_ESM.xlsx, sheet "Extended Data Figure 3J"

[1] = Sensor + Gs-peptide, 125I-Cyanopindolol 0.000239059 nM
[2] = Sensor + Gs-peptide, 125I-Cyanopindolol 0.0167722 nM
[3] = Sensor + Gs-peptide, 125I-Cyanopindolol 0.0344858 nM
[4] = Sensor + Gs-peptide, 125I-Cyanopindolol 0.073983 nM
[5] = Sensor + Gs-peptide, 125I-Cyanopindolol 0.202201 nM
[6] = Sensor + Gs-peptide, 125I-Cyanopindolol 0.415365 nM
[7] = Sensor + Gs-peptide, 125I-Cyanopindolol 0.83063 nM
[8] = Sensor + Gs-peptide, 125I-Cyanopindolol 1.64238 nM

Substance: [^125I](±)-cyanopindolol
- Bmax (β2AR; Sensor + Gs-pep): 1992.85 and 2334.87 and 1180.14
- fmol 125I-Cyanopindolol/mg sample, Fit (β2AR; [1]): 0.00E+00 fmol/mg sample
- fmol 125I-Cyanopindolol/mg sample (β2AR; [1]): -1.828 fmol/mg sample and 0.6291 fmol/mg sample and 0.5155 fmol/mg sample
- fmol 125I-Cyanopindolol/mg sample, Fit (β2AR; [2]): 3.85E+02 fmol/mg sample
- fmol 125I-Cyanopindolol/mg sample (β2AR; [2]): 331.932 fmol/mg sample and 483.578 fmol/mg sample and 237.189 fmol/mg sample
- fmol 125I-Cyanopindolol/mg sample, Fit (β2AR; [3]): 6.37E+02 fmol/mg sample
- fmol 125I-Cyanopindolol/mg sample (β2AR; [3]): 633.08 fmol/mg sample and 885.671 fmol/mg sample and 427.455 fmol/mg sample
- fmol 125I-Cyanopindolol/mg sample, Fit (β2AR; [4]): 9.68E+02 fmol/mg sample
- fmol 125I-Cyanopindolol/mg sample (β2AR; [4]): 973.823 fmol/mg sample and 1370.71 fmol/mg sample and 652.022 fmol/mg sample
- fmol 125I-Cyanopindolol/mg sample, Fit (β2AR; [5]): 1.38E+03 fmol/mg sample
- fmol 125I-Cyanopindolol/mg sample (β2AR; [5]): 1415.68 fmol/mg sample and 1842.87 fmol/mg sample and 880.16 fmol/mg sample
- fmol 125I-Cyanopindolol/mg sample, Fit (β2AR; [6]): 1.58E+03 fmol/mg sample
- fmol 125I-Cyanopindolol/mg sample (β2AR; [6]): 1527.87 fmol/mg sample and 2049.46 fmol/mg sample and 1008.05 fmol/mg sample
- fmol 125I-Cyanopindolol/mg sample, Fit (β2AR; [7]): 1.71E+03 fmol/mg sample
- fmol 125I-Cyanopindolol/mg sample (β2AR; [7]): 1817.18 fmol/mg sample and 2238.94 fmol/mg sample and 1107.54 fmol/mg sample
- fmol 125I-Cyanopindolol/mg sample, Fit (β2AR; [8]): 1.78E+03 fmol/mg sample
- fmol 125I-Cyanopindolol/mg sample (β2AR; [8]): 1925.74 fmol/mg sample and 2301.14 fmol/mg sample and 1169.54 fmol/mg sample
- fmol 125I-Cyanopindolol/mg sample (β2AR; Sensor + Gs-peptide, 125I-Cyanopindolol 1.64238 nM, mean): 1798.81 fmol/mg sample
- fmol 125I-Cyanopindolol/mg sample, Fit (β2AR; Sensor, 125I-Cyanopindolol 0.0198458 nM (Average)): 3.34E+02 fmol/mg sample
- fmol 125I-Cyanopindolol/mg sample, Fit (β2AR; Sensor, 125I-Cyanopindolol 0.0420593 nM (Average)): 5.96E+02 fmol/mg sample
- fmol 125I-Cyanopindolol/mg sample, Fit (β2AR; Sensor, 125I-Cyanopindolol 0.234223 nM (Average)): 1.38E+03 fmol/mg sample
- fmol 125I-Cyanopindolol/mg sample, Fit (β2AR; Sensor, 125I-Cyanopindolol 0.468204 nM (Average)): 1.60E+03 fmol/mg sample
- fmol 125I-Cyanopindolol/mg sample, Fit (β2AR; Sensor, 125I-Cyanopindolol 0.871756 nM (Average)): 1.73E+03 fmol/mg sample
- fmol 125I-Cyanopindolol/mg sample, Fit (β2AR; Sensor, 125I-Cyanopindolol 1.70257 nM (Average)): 1.81E+03 fmol/mg sample
- Bmax (β2AR; Sensor): 1914.14 and 2557.54 and 1116.04
- 125I-Cyanopindolol saturation binding signal (β2AR; ∆ICL3 + 30 µM Q, 0.0283 nM, Average): 236.51
- 125I-Cyanopindolol saturation binding signal (β2AR; ∆ICL3 + 30 µM Q, 0.0283 nM, Fit): 285.20
- 125I-Cyanopindolol saturation binding signal (β2AR; ∆ICL3 + 30 µM Q, 0.0283 nM, experiments 1-3): 222.98 and 255.55 and 231.00
- 125I-Cyanopindolol saturation binding signal (β2AR; ∆ICL3 + 30 µM Q, 0.0474 nM, Average): 366.56
- 125I-Cyanopindolol saturation binding signal (β2AR; ∆ICL3 + 30 µM Q, 0.0474 nM, Fit): 463.24
- 125I-Cyanopindolol saturation binding signal (β2AR; ∆ICL3 + 30 µM Q, 0.0474 nM, experiments 1-3): 296.41 and 421.89 and 381.36
- 125I-Cyanopindolol saturation binding signal (β2AR; ∆ICL3 + 30 µM Q, 0.10 nM, Average): 910.97
- 125I-Cyanopindolol saturation binding signal (β2AR; ∆ICL3 + 30 µM Q, 0.10 nM, Fit): 816.24
- 125I-Cyanopindolol saturation binding signal (β2AR; ∆ICL3 + 30 µM Q, 0.10 nM, experiments 1-3): 840.60 and 993.89 and 898.42
- 125I-Cyanopindolol saturation binding signal (β2AR; ∆ICL3 + 30 µM Q, 1.85 nM, Average): 1906.34
- 125I-Cyanopindolol saturation binding signal (β2AR; ∆ICL3 + 30 µM Q, 1.85 nM, Fit): 1809.97
- 125I-Cyanopindolol saturation binding signal (β2AR; ∆ICL3 + 30 µM Q, 1.85 nM, experiments 1-3): 1586.99 and 2170.25 and 1961.77
- 125I-Cyanopindolol saturation binding signal (β2AR; ∆ICL3, 0.0283 nM, Average): 126.54
- 125I-Cyanopindolol saturation binding signal (β2AR; ∆ICL3, 0.0283 nM, Fit): 399.52
- 125I-Cyanopindolol saturation binding signal (β2AR; ∆ICL3, 0.0283 nM, experiments 1-3): 94.88 and 85.74
- 125I-Cyanopindolol saturation binding signal (β2AR; ∆ICL3, 0.0474 nM, Average): 687.11
- 125I-Cyanopindolol saturation binding signal (β2AR; ∆ICL3, 0.0474 nM, Fit): 612.62
- 125I-Cyanopindolol saturation binding signal (β2AR; ∆ICL3, 0.10 nM, Average): 1201.35
- 125I-Cyanopindolol saturation binding signal (β2AR; ∆ICL3, 0.10 nM, Fit): 1024.98
- 125I-Cyanopindolol saturation binding signal (β2AR; ∆ICL3, 1.85 nM, Average): 2504.14
- 125I-Cyanopindolol saturation binding signal (β2AR; ∆ICL3, 1.85 nM, Fit): 2413.51
- 125I-Cyanopindolol saturation binding signal (β2AR; ∆ICL3, 1.85 nM, experiments 1-3): 2561.55 and 2855.56 and 2095.33
- fmol 125I-Cyanopindolol/mg sample, Fit (Untransfected; 125I-Cyanopindolol 0.0198458 nM (Average)): 7.834e-5 fmol/mg sample
- fmol 125I-Cyanopindolol/mg sample, Fit (Untransfected; 125I-Cyanopindolol 0.0420593 nM (Average)): 0.0001875 fmol/mg sample
- fmol 125I-Cyanopindolol/mg sample, Fit (Untransfected; 125I-Cyanopindolol 0.234223 nM (Average)): 0.05859 fmol/mg sample
- fmol 125I-Cyanopindolol/mg sample, Fit (Untransfected; 125I-Cyanopindolol 0.468204 nM (Average)): 1.044 fmol/mg sample
- fmol 125I-Cyanopindolol/mg sample, Fit (Untransfected; 125I-Cyanopindolol 0.871756 nM (Average)): 13.7262 fmol/mg sample
- fmol 125I-Cyanopindolol/mg sample, Fit (Untransfected; 125I-Cyanopindolol 1.70257 nM (Average)): 172.555 fmol/mg sample

From PMC10033409, “Autoregulation of GPCR signalling through the third intracellular loop” (Nature, 2023)
